Measured values from patent US20240327488A1, “CONNEXIN-46 PEPTIDE MODULATOR” (UNIVERSIDAD DEL DESARROLLO, priority 2023, published 2024).

What was measured:
Type in all cases: cell-based, human
HeLa Cx46-GFP cells = assay: Tumor sphere formation on non-adherent surface
Description: (B) Tumor spheres growing is a technique used to determine the cancer stem cells capacity. Hela cells transfected with GFP for a monolayer of cells when they a seeded in a non-adherent surface, and moreover they died after 14 days in culture. However, Hela cells transfected with Cx46GFP do form tumor spheres which survive at last for 14 days. […] (D) graphical comparison between the size of tumor spheres at day 14 under control conditions (outer line) and treated with the peptide (inner line). Plot show the quantification of the tumor sphere size between time 0 and day 14, both under control condition (upper line) and with the peptide (lower line).
Mimetic peptides of the Cx46 domains that would interact with c-Src, Akt or PI3k were designed, synthesized and evaluated for their ability to inhibit the formation of tumor spheres in vitro in Hela cells overexpressing or not Cx46. Briefly, the experiments were done with the following protocols.
Cell line cultures: The HeLa cell line was grown in Dulbecco's Modified Eagle Medium (DMEM) supplemented with 10% fetal bovine serum (FBS) and 1% penicillin 10,000 U/mL, streptomycin sulfate […] (P/S) at 37° C., 5% CO2 and 95% humidity. Every 2 weeks the presence of mycoplasma was analyzed, by means of staining with DAPI. Infected cells were treated with BioMyc-1 (100×) for two weeks.
Cell Transfection: Cells were transfected using Lipofectamine 2000 (Invitrogen). For this HeLa cell cultures were grown to reach 60% confluence. Cells are washed with serum-free DMEM twice and finally exposed to OptiMem™ (Invitrogen) plus 1 μg cDNA. The cDNA for GFP-linked human Cx46 was purchased from Promega. The plasmid also has a resistance to G418, which is an antibiotic that serves for the selection of cells that stably express Cx46-GFP. Cx46 expression was monitored by Western blot and immunofluorescence analysis.
However, Hela cells transfected with Cx46-GFP form large tumor spheres that remain alive for at least 14 days (FIG. 2B; Annex 1). […]

[1] = tested on: Akt phosphorylation in S473; assay: Western blot of Akt phosphorylation at S473
Protocol: (A) Representative Western blot showing, the levels of phosphorylation at S473 (pAKT), total AKT (AKT) and loading control (actin). Different concentrations of TAT-Cx46-Src were tested, ranging between […]. (B) Plot showing the relative levels of pAKT with respect to total AKT at different concentrations of TAT-Cx46-Src. (n=3).
Western blots: Cells were washed three times with phosphate buffered saline
(PBS) pH: 7.4 and then lysed with RIPA buffer (150 mM NaCl, 20 mM Tris pH: 7.4; 0.5% Sodium Desoxycholate, 0.1% Sodium Dodecyl Sulfate (SDS), 1% Nonidet P-40 and a protease inhibitor cocktail tablet). Proteins were quantified using the Qubit™ protein Assay Kit in a Qubit™ Fluorometer following the manufacturer's instructions (ThermoFisher). Subsequently, Laemli buffer (4×) (62.5 mM Tris pH 6.8; 25% glycerol, 2% SDS, 0.01% bromophenol blue and 5% β-mercaptoethanol) was added to the cell lysate and was heated at 95° C. for 3 min, in a thermoblock. About 50 μg of proteins were loaded into each well of a 10% polyacrylamide gel under denaturing conditions (SDS-PAGE). Then the proteins were transferred to a polyvinylidene difluoride (PVDF) membrane by wet transfer for 2 h at 100 V in Tris-Glycine 20% methanol buffer. The membranes were blocked with 5% skimmed milk in Buffer Tris and 0.05% Tween 20 (T-TBS) for 1 h at room temperature under shaking. […]

[2] = tested on: Tumor spheres formed by Hela cells transfected with Cx46GFP; assay: Cell viability of tumor spheres (7-AAD uptake)
Protocol: Tumor spheres formed by Hela cells transfected with Cx46GFP were grown for 14 days. […] TAT-Cx46-Src was added every 3 days (every time that culture media was replaced). At day 14th, 10 mM 7-AAD was added to the extracellular media.

## TAT-Cx46-Src: Mimetic peptide of the Cx46 404-410 C-terminal segment (MHQPPLP) fused with the cell-penetrating TAT peptide; blocks the Cx46/c-Src interaction (GRKKRRQRRRPQMHQPPLP)
HeLa Cx46-GFP cells; 100 μM, 10 days of treatment, HeLa Cx46-GFP cells
  decrease of the size of tumor spheres: about 43%
HeLa Cx46-GFP cells; 100 mM added to the extracellular media every 3 days, Hela Cx46GFP, up to day 14 (FIG. 2C)
  tumor sphere size: reduced tumor sphere size
HeLa Cx46-GFP cells; Hela cells (FIGS. 2C and D)
  inhibition of the cancer stem cells (CSC) functional phenotype: strong inhibition
[1]; 100 μM, 24-h treatment, HeLa Cx46-GFP cells
  Akt phosphorylation levels in S473: strongly decreased
[1]; concentrations ranging between 0-100 mM, n=3 (FIG. 3)
  Akt phosphorylation in S473 (pAKT relative to total AKT): decreased Akt phosphorylation
[2]; day 14, 10 mM 7-AAD in extracellular media, 100 mM peptide every 3 days, n=3
  uptake of 7-AAD dye: shown uptake of this Dye
[2]; treatment with 100 μM, HeLa Cx46-GFP tumor spheres
  death of cells in tumor spheres (cell viability studies): promotes the death of cells in the center of tumor spheres
[2]; tumor spheres grown 14 days, 100 mM added every 3 days, n=3 (FIG. 4)
  cell death of Hela cells Cx46GFP: increase cell death
